# Source: patent US20080312287A1, “Compound and Methods For the Treatment of Cancer and Malaria” (University of Washington, priority 2005, published 2008)
# Read-outs that look alike come from different tables or passages of the source. Marks after values point to notes of the source that are not given here.
# Legend:
# P. falciparum K1 = assay: P. falciparum ED50 determination, [3H]-hypoxanthine incorporation, strain K1; type: cell-based, Plasmodium falciparum
# Excerpt: (§1) Plasmodium strains. The P. falciparum strains used in this study were 3D7 (Netherlands, sensitive) provided by Dr. Pradipsinh Rathod from the University of Washington and K1 (Thailand, ChQ-R, Pyr-R) obtained from the MR4Unit of the American Type Culture Collection (ATCC, Manassas, Va.).
# (§2) P. falciparum culture. Strains of P. falciparum were sustained in vitro based on experimental techniques as described by Trager and Jensen.^26 Cultures were maintained in RPMI-1640 (Sigma, St. Louis, […].) with 2 mM L-glutamine, 25 mM HEPES, 33 mM NaHCO3, 20 μg/ml gentamicin sulfate and 20% (v/v) heat-inactivated human plasma type A+ (R^P-20P). Type A+ erythrocytes were obtained from lab donors, washed three times with RPMI, re-suspended in 50% RPMI, and stored at 4° C. Parasites were grown in 10 mL of a 2% hematocrit/RP-20P (v/v) in 50-mL flasks under a 5% CO2, 5% O2, and 90% N2 atmosphere.
# (§3) P. falciparum ED50 determination. One […]L of PFTI dissolved in DMSO was added to each well of a 96-well plate followed by the addition of 200 μL of P. falciparum culture at parasitemia and hematocrit of 0.5%. Plates were flushed with 5% CO2, 5% O2, and 90% N2 then incubated at 37° C. for 48 hr. [8-^3H]-hypoxanthine (0.3 μCi, 20 Ci/mmol, American Radiolabeled Chemicals) in 30 μL RP-20P was added to cultures and incubated for an additional 24 hours. Cells were harvested onto filter mats by a Multiharvester (Skatron, Sunnyvale, Calif.) and the radioactivity incorporated into the parasites was counted on a β-scintillation counter. The background level detected with uninfected erythrocytes was subtracted from the data. The ^3H-incorporation into infected RBCs with 1 μL DMSO vehicle alone represents 100% malaria growth. ED50 values were determined by linear regression analysis of the plots of ^3H-hypoxanthine incorporation versus concentration of compound.
# PfPFT = target: T1, PfPFT (Plasmodium falciparum, UniProt Q8I503+Q8IHP6); assay: PfPFT inhibition, scintillation proximity assay with partially purified PfPFT; type: biochemical; conditions: for Selectivity: ratio of rat to Plasmodium PFT activity; for inhibition at 0.005 µM: read-out: % Inhibition of PfPFT at 5 nM, inhibitor at 5 nM; for inhibition at 0.05 µM: read-out: % Inhibition of PfPFT at 50 nM, inhibitor at 50 nM; for IC50: concentration decreasing transferase activity twofold
# T1 sequence (Q8I503 1-521): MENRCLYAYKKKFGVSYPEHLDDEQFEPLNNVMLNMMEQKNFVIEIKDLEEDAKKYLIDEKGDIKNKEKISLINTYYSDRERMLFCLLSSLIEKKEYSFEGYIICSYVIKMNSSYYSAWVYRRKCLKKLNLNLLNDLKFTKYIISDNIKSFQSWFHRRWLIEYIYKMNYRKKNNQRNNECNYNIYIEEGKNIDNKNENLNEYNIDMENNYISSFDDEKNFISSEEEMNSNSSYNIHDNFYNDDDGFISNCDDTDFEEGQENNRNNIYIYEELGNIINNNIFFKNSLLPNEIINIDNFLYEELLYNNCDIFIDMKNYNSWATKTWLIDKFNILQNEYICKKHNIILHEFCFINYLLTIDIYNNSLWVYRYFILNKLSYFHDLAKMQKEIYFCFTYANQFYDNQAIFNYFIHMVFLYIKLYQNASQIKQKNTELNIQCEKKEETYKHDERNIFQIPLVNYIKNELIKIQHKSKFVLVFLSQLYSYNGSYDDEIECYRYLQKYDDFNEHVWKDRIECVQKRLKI
# T1 sequence (Q8IHP6 1-923): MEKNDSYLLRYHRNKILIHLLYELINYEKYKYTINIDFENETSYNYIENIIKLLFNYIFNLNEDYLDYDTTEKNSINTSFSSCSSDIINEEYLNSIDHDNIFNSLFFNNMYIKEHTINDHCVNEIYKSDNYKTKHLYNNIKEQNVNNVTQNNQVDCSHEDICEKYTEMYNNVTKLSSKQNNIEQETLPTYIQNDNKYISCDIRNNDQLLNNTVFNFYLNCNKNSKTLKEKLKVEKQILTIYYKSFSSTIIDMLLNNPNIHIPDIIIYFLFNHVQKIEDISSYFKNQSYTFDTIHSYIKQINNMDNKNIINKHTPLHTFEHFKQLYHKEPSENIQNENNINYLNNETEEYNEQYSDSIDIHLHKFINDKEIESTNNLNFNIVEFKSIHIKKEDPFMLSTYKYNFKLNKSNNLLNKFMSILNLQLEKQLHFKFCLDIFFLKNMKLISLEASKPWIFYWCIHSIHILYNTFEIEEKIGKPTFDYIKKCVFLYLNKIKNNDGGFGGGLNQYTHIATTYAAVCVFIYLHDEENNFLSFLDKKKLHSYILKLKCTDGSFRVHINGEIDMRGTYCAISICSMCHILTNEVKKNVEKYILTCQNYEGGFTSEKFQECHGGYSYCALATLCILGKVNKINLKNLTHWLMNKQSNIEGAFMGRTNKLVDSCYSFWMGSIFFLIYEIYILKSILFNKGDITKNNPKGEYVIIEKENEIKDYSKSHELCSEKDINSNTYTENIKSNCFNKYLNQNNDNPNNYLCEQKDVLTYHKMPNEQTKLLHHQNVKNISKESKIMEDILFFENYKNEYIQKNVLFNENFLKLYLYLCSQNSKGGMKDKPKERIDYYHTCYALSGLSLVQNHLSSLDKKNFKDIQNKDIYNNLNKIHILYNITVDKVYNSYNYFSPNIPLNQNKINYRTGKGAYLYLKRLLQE
# P. falciparum 3D7 = assay: P. falciparum ED50 determination, [3H]-hypoxanthine incorporation, strain 3D7; type: cell-based, Plasmodium falciparum
# Excerpt: as §1, §2, §3
# Rat FTase = Rat FTase (Rattus norvegicus, UniProt Q02293+Q04631); assay: Rat farnesyltransferase IC50 determination; type: biochemical; conditions: concentration decreasing transferase activity twofold
# [1] = Oral availability in rats, inhibitor concentration in plasma; type: in vivo; conditions: rat, in vivo, po
# [2] = Oral availability in mice, inhibitor concentration in plasma; type: in vivo; conditions: mouse, in vivo, po
# [3] = Plasmodium falciparum, K1, strain K1, concentration decreasing hypoxanthine incorporation into parasites twofold, read-out: ED50 K1
# [4] = Plasmodium falciparum, 3D7, strain 3D7, concentration decreasing hypoxanthine incorporation into parasites twofold, read-out: ED50 3D7
structure (smiles),measurement,setting,value
"Cn1cncc1CN(CCN(Cc1ccccc1)S(=O)(=O)c1ccccc1)c1ccc(C#N)cc1 [Compound 8e, N-Benzyl-N-{2-[(4-cyano-phenyl)-(3-methyl-3H-imidazol-4-ylmethyl)-amino]-ethyl}-benzenesulfonamide]",EC50,P. falciparum K1; [3],2250 nM
same,Selectivity,PfPFT,1.5
same,inhibition at 0.005 µM,PfPFT,18%
same,inhibition at 0.05 µM,PfPFT,69%
same,EC50,P. falciparum 3D7; [4],2500 nM
same,IC50,Rat FTase,13 nM
"Cn1cnc(S(=O)(=O)N(CCN(Cc2cncn2C)c2ccc(Br)cc2)Cc2ccccc2)c1 [Compound 8b, 1-Methyl-1H-imidazole-4-sulfonic acid benzyl-{2-[(4-bromo-phenyl)-(3-methyl-3H-imidazol-4-ylmethyl)-amino]-ethyl}-amide]",EC50,P. falciparum K1; [3],3200 nM
same,inhibition at 0.005 µM,PfPFT,86%
same,inhibition at 0.05 µM,PfPFT,95%
same,EC50,P. falciparum 3D7; [4],675 nM
same,IC50,Rat FTase,290 nM
"CN(C)c1cccc2c(S(=O)(=O)N(CCN(Cc3cncn3C)c3ccc(C#N)cc3)Cc3ccccc3)cccc12 [Compound 8i, 5-Dimethylamino-naphthalene-1-sulfonic acid benzyl-{2-[(4-cyano-phenyl)-(3-methyl-3H-imidazol-4-ylmethyl)-amino]-ethyl}-amide]",EC50,P. falciparum K1; [3],388 nM
same,Selectivity,PfPFT,3.3
same,inhibition at 0.005 µM,PfPFT,6%
same,inhibition at 0.05 µM,PfPFT,29%
same,EC50,P. falciparum 3D7; [4],300 nM
same,IC50,Rat FTase,180 nM
"Cc1ccccc1CN(CCN(Cc1cncn1C)c1ccc(C#N)cc1)S(=O)(=O)c1cn(C)cn1 [Compound 8x, 1-Methyl-1H-imidazole-4-sulfonic acid {2-[(4-cyano-phenyl)-(3-methyl-3H-imidazol-4-ylmethyl)-amino]-ethyl}-(2-methyl-benzyl)-amide]",EC50,P. falciparum K1; [3],150 nM
same,"Oral Availability AUC (^d, rats)",[1],103^d μM · min
same,inhibition at 0.005 µM,PfPFT,95%
same,inhibition at 0.05 µM,PfPFT,99%
same,EC50,P. falciparum 3D7; [4],93 nM
same,Tmax,[2],40 min
same,Cmax,[2]; 1 mg,1050 nM
same,IC50,Rat FTase,15.5 nM
"Cc1ccccc1CN(CCN(Cc1cncn1C)c1ccc(-c2ccccc2)cc1)S(=O)(=O)c1cn(C)cn1 [Compound 8c, 1-Methyl-1H-imidazole-4-sulfonic acid {2-[biphenyl-4-yl-(3-methyl-3H-imidazol-4-ylmethyl)-amino]-ethyl}-(2-methyl-benzyl)-amide]",EC50,P. falciparum K1; [3],2600 nM
same,EC50,"P. falciparum K1; strain K1, concentration decreasing hypoxanthine incorporation into parasites twofold, read-out: ED50 K1",2500 nM
same,IC50,PfPFT,8 nM
same,inhibition at 0.005 µM,PfPFT,49%
same,inhibition at 0.05 µM,PfPFT,85%
same,EC50,P. falciparum 3D7; [4],2500 nM
same,EC50,"P. falciparum 3D7; strain 3D7, concentration decreasing hypoxanthine incorporation into parasites twofold, read-out: ED50 3D7",2600 nM
same,IC50,Rat FTase,> 1000 nM
"Cn1cnc(S(=O)(=O)N(CCN(Cc2cncn2C)c2ccc(C#N)cc2)Cc2ccccn2)c1 [Compound 8aa, 1-Methyl-1H-imidazole-4-sulfonic acid {2-[(4-cyano-phenyl)-(3-methyl-3H-imidazol-4-ylmethyl)-amino]-ethyl}-pyridin-2-ylmethyl-amide amide]",EC50,P. falciparum K1; [3],1000 nM
same,inhibition at 0.005 µM,PfPFT,64%
same,inhibition at 0.05 µM,PfPFT,93%
same,EC50,P. falciparum 3D7; [4],750 nM
same,IC50,Rat FTase,43 nM
"Cn1cnc(S(=O)(=O)N(CCN(Cc2cncn2C)c2ccc(C#N)cc2)CC2CCN(C(=O)OC(C)(C)C)CC2)c1 [Compound 8v, 4-{[{2-[(4-Cyano-phenyl)-(3-methyl-3H-imidazol-4-ylmethyl)-amino]-ethyl}-(1-methyl-1H-imidazole-4-sulfonyl)-amino]-methyl}-piperidine-1-carboxylic acid tert-butyl ester]",EC50,P. falciparum K1; [3],54 nM
same,IC50,PfPFT,1.2 nM
same,inhibition at 0.005 µM,PfPFT,81%
same,inhibition at 0.05 µM,PfPFT,96%
same,EC50,P. falciparum 3D7; [4],88 nM
same,Tmax,[2],≤ 40 min
"Cn1cncc1CN(CCN(Cc1ccccc1)S(=O)(=O)c1ccccn1)c1ccc(C#N)cc1 [Compound 8g, Pyridine-2-sulfonic acid benzyl-{2-[(4-cyano-phenyl)-(3-methyl-3H-imidazol-4-ylmethyl)-amino]-ethyl}-amide]",EC50,P. falciparum K1; [3],2300 nM
same,IC50,PfPFT,2.8 nM
same,inhibition at 0.005 µM,PfPFT,64%
same,inhibition at 0.05 µM,PfPFT,95%
same,EC50,P. falciparum 3D7; [4],570 nM
same,Tmax,[2],30 min
"Cn1cnc(S(=O)(=O)N(CCN(Cc2cncn2C)c2ccc(C#N)cc2)CC(=O)NC(C)(C)C)c1 [Compound 8o, N-tert-Butyl-2-[{2-[(4-cyano-phenyl)-(3-methyl-3H-imidazol-4-ylmethyl)-amino]-ethyl}-(1-methyl-1H-imidazole-4-sulfonyl)-amino]-acetamide]",EC50,P. falciparum K1; [3],> 5000 nM
same,IC50,PfPFT,> 1000 nM
same,inhibition at 0.005 µM,PfPFT,4%
same,inhibition at 0.05 µM,PfPFT,6%
same,EC50,P. falciparum 3D7; [4],2800 nM
same,IC50,Rat FTase,> 1000 nM
"CC(=O)N(CCN(Cc1cncn1C)c1ccc(C#N)cc1)Cc1ccccc1 [Compound 8j, N-Benzyl-N-{2-[(4-cyano-phenyl)-(3-methyl-3H-imidazol-4-ylmethyl)-amino]-ethyl}-acetamide]",EC50,"P. falciparum K1; Plasmodium falciparum, K1, read-out: ED50 K1",> 5000 nM
same,inhibition at 0.005 µM,PfPFT,0%
same,inhibition at 0.05 µM,PfPFT,56%
same,EC50,"P. falciparum 3D7; Plasmodium falciparum, 3D7, read-out: ED50 3D7",2500 nM
"Cn1cnc(S(=O)(=O)N(CCN(Cc2cncn2C)c2ccc(Br)cc2)Cc2ccccn2)c1 [Compound 13, 1-Methyl-1H-imidazole-4-sulfonic acid {2-[(4-bromo-phenyl)-(3-methyl-3H-imidazol-4-ylmethyl)-amino]-ethyl}-pyridin-2-ylmethyl-amide]",IC50,Rat FTase,83 nM
"Cn1cnc(S(=O)(=O)N(CCN(Cc2cncn2C)c2ccc(C#N)cc2)Cc2ccc(C#N)cc2)c1 [Compound 8ae, 1-Methyl-1H-imidazole-4-sulfonic acid (4-cyano-benzyl)-{2-[(4-cyano-phenyl)-(3-methyl-3H-imidazol-4-ylmethyl)-amino]-ethyl}-amide]",EC50,P. falciparum K1; [3],4100 nM
same,Selectivity,PfPFT,3.7
same,inhibition at 0.005 µM,PfPFT,24%
same,inhibition at 0.05 µM,PfPFT,48%
same,EC50,P. falciparum 3D7; [4],1600 nM
same,IC50,Rat FTase,350 nM
